Data from patent US11000033B2, “Ketone or oxime compound, and herbicide” (NISSAN CHEMICAL CORPORATION, priority 2014, dated 2021).

Tests used:
Format in all cases: in vivo
[1] = tested on: Avena fatua; assay: Test Example 4: herbicidal effect by soil treatment (symbol I); conditions: for I: Avena fatua, herbicidal effect grade: 320 g/ha; for Herbicidal effect grade, I: Avena fatua: application herbicide amount 320 g/ha
Method in brief: (§1)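 Seeds were sown in sterilized diluvial soil, covered with about 1.5 cm of soil, and the soil surface was sprayed with a water-diluted emulsion of the compound at a predetermined rate. Plants grew in a greenhouse at 25° C. to 30° C.; effects were scored visually 3 weeks after application.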

[2] = tested on: Alopecurus myosuroides; assay: Test Example 5: herbicidal effect by foliage application, plastic box (symbol J); conditions: 320 g/ha, 3 weeks after application
Method in brief: (§2)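 Effect is rated 3 weeks after a foliar spray of water-diluted emulsion concentrate at a predetermined herbicide amount. Plants had grown 14 days in a 25° C. to 30° C. greenhouse from seed in sterilized diluvial soil.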

[3] = tested on: rapeseed; assay: Test Example 5: effect on crop by foliage application, plastic box (symbol g); conditions: 320 g/ha, 3 weeks after application
Method in brief: (§3)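 Diluvial soil, sterilized and boxed (21 × 13 × 7 cm), received spot-sown seed covered by about 1.5 cm soil; plants were then greenhouse-grown at 25–30° C.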

[4] = tested on: Scirpus juncoides; assay: Test Example 2: herbicidal activity, application during weed generation in submerged conditions (symbol B); conditions: Table 23; application herbicide amount 320 g/ha; grade 0-5 by criteria of Test Example 1
Method in brief: (§4)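 Flooded-soil post-emergence test: emulsion of compound, water-diluted to target rate, applied to paddy water surface at 1–2 leaf stage of mixed-sown weeds (alluvial soil, 4 cm water, 25–30° C. greenhouse); visual rating 3 weeks after application.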

[5] = tested on: Apera spica-venti; assay: Test Example 4: herbicidal effect by soil treatment (symbol L); conditions: for L: Apera spica-venti, herbicidal effect grade: 320 g/ha; for Herbicidal effect grade, L: Apera spica-venti: application herbicide amount 320 g/ha
Method in brief: as §1

[6] = tested on: Alopecurus myosuroides; assay: Test Example 4: herbicidal effect by soil treatment (symbol J); conditions: for J: Alopecurus myosuroides, herbicidal effect grade: 320 g/ha; for Herbicidal effect grade, J: Alopecurus myosuroides: application herbicide amount 320 g/ha
Method in brief: as §1

[7] = tested on: Apera spica-venti; assay: Test Example 5: herbicidal effect by foliage application, plastic box (symbol L); conditions: 320 g/ha, 3 weeks after application
Method in brief: as §2

[8] = tested on: Abutilon theophrasti; assay: Test Example 4: herbicidal effect by soil treatment (symbol M); conditions: for M: Abutilon theophrasti, herbicidal effect grade: 320 g/ha; for Herbicidal effect grade, M: Abutilon theophrasti: application herbicide amount 320 g/ha
Method in brief: as §1

[9] = tested on: Chenopodium album; assay: Test Example 4: herbicidal effect by soil treatment (symbol O); conditions: for O: Chenopodium album, herbicidal effect grade: 320 g/ha; for Herbicidal effect grade, O: Chenopodium album: application herbicide amount 320 g/ha
Method in brief: as §1

[10] = tested on: Scirpus juncoides; assay: Test Example 1: herbicidal activity, application before weed generation in submerged conditions (symbol B); conditions: application herbicide amount 320 g/ha
Method in brief: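 Compound emulsion was diluted to a set herbicide amount and applied to the water surface on the sowing day, into submerged (4 cm) alluvial-soil pots sown with mixed weed seeds and transplanted 2.5-leaf rice. Pots were held in a 25–30 °C greenhouse, and weeds were scored 0–5 by herbicidal ratio after 3 weeks.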

[11] = tested on: Cyperus difformis; assay: Test Example 3: herbicidal effect by foliage application, Wagner pot (symbol E); conditions: application herbicide amount 320 g/ha; for E herbicidal effect grade: Table 24
Method in brief: (§5)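 Rating at 3 weeks post-spray, by defined criteria. Treatment: emulsion diluted with water to a predetermined amount, applied evenly to foliage of 14-day-old plants raised in alluvial soil flooded 0.1–0.5 cm deep at 25–30 °C, rice co-sown.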

[12] = tested on: Echinochloa oryzacola Vasing.; assay: Test Example 2: herbicidal activity, application during weed generation in submerged conditions (symbol A); conditions: Table 23; application herbicide amount 320 g/ha; grade 0-5 by criteria of Test Example 1
Method in brief: as §4

[13] = tested on: Setaria viridis; assay: Test Example 4: herbicidal effect by soil treatment (symbol G); conditions: for G: Setaria viridis, herbicidal effect grade: 320 g/ha; for Herbicidal effect grade, G: Setaria viridis: application herbicide amount 320 g/ha
Method in brief: as §1

[14] = tested on: Veronica persica; assay: Test Example 4: herbicidal effect by soil treatment (symbol R); conditions: for R: Veronica persica, herbicidal effect grade: 320 g/ha; for Herbicidal effect grade, R: Veronica persica: application herbicide amount 320 g/ha
Method in brief: as §1

[15] = tested on: corn; assay: Test Example 5: effect on crop by foliage application, plastic box (symbol c); conditions: 320 g/ha, 3 weeks after application
Method in brief: as §3

[16] = tested on: Echinochloa crus-galli var. crus-galli; assay: Test Example 3: herbicidal effect by foliage application, Wagner pot (symbol H); conditions: application herbicide amount 320 g/ha; for H (Echinochloa crus-galli var. crus-galli) herbicidal effect grade: Table 24
Method in brief: as §5

SMILES: CC(CC1CC(O)=C(c2c(C)cc(C)cc2C)C1=O)=NOCC(C)Cl (stereo not shown) [1-121]
- I: Avena fatua, herbicidal effect grade [1]: 1 (Herbicidal ratio of 5% or higher and lower than 20%)
- J: Alopecurus myosuroides, herbicidal effect (criteria 0-5) [2]: 5 (Herbicidal ratio of 90% or more (almost completely withered))
- g: rapeseed, effect on crop (criteria 0-5) [3]: 5 (Herbicidal ratio of 90% or more (almost completely withered))
- Herbicidal effect grade, B: Scirpus juncoides [4]: 4 (Herbicidal ratio of 70% or higher and lower than 90%)
- L: Apera spica-venti, herbicidal effect grade [5]: 5 (Herbicidal ratio of 90% or more (almost completely withered))
- J: Alopecurus myosuroides, herbicidal effect grade [6]: 5 (Herbicidal ratio of 90% or more (almost completely withered))
- L: Apera spica-venti, herbicidal effect (criteria 0-5) [7]: 5 (Herbicidal ratio of 90% or more (almost completely withered))
- M: Abutilon theophrasti, herbicidal effect grade [8]: 0 (Herbicidal ratio of 5% or lower (almost no effect))
- O: Chenopodium album, herbicidal effect grade [9]: 0 (Herbicidal ratio of 5% or lower (almost no effect))
- Herbicidal effect grade, B: Scirpus juncoides [10]: 5 (Herbicidal ratio of 90% or more (almost completely withered))
- herbicidal effect on E, grade 0-5 [11]: 4 (Herbicidal ratio of 70% or higher and lower than 90%)
- Herbicidal effect grade, A: Echinochloa oryzacola Vasing. [12]: 5 (Herbicidal ratio of 90% or more (almost completely withered))
- G: Setaria viridis, herbicidal effect grade [13]: 5 (Herbicidal ratio of 90% or more (almost completely withered))
- R: Veronica persica, herbicidal effect grade [14]: 0 (Herbicidal ratio of 5% or lower (almost no effect))
- c: corn, effect on crop (criteria 0-5) [15]: 5 (Herbicidal ratio of 90% or more (almost completely withered))
- herbicidal effect on H (Echinochloa crus-galli var. crus-galli), grade 0-5 [16]: 5 (Herbicidal ratio of 90% or more (almost completely withered))

SMILES: COC(=O)c1ccc(CON=C(C)CC2CC(O)=C(c3c(C)cc(C)cc3C)C2=O)cc1 (stereo not shown) [1-118]
- I: Avena fatua, herbicidal effect grade [1]: 0 (Herbicidal ratio of 5% or lower (almost no effect))
- J: Alopecurus myosuroides, herbicidal effect (criteria 0-5) [2]: 4 (Herbicidal ratio of 70% or higher and lower than 90%)
- g: rapeseed, effect on crop (criteria 0-5) [3]: 4 (Herbicidal ratio of 70% or higher and lower than 90%)
- Herbicidal effect grade, B: Scirpus juncoides [4]: 0 (Herbicidal ratio of 5% or lower (almost no effect))
- L: Apera spica-venti, herbicidal effect grade [5]: 3 (Herbicidal ratio of 40% or higher and lower than 70%)
- J: Alopecurus myosuroides, herbicidal effect grade [6]: 3 (Herbicidal ratio of 40% or higher and lower than 70%)
- L: Apera spica-venti, herbicidal effect (criteria 0-5) [7]: 3 (Herbicidal ratio of 40% or higher and lower than 70%)
- M: Abutilon theophrasti, herbicidal effect grade [8]: 0 (Herbicidal ratio of 5% or lower (almost no effect))
- O: Chenopodium album, herbicidal effect grade [9]: 0 (Herbicidal ratio of 5% or lower (almost no effect))
- Herbicidal effect grade, B: Scirpus juncoides [10]: 1 (Herbicidal ratio of 5% or higher and lower than 20%)
- herbicidal effect on E, grade 0-5 [11]: 0 (Herbicidal ratio of 5% or lower (almost no effect))
- Herbicidal effect grade, A: Echinochloa oryzacola Vasing. [12]: 2 (Herbicidal ratio of 20% or higher and lower than 40%)
- G: Setaria viridis, herbicidal effect grade [13]: 2 (Herbicidal ratio of 20% or higher and lower than 40%)
- R: Veronica persica, herbicidal effect grade [14]: 0 (Herbicidal ratio of 5% or lower (almost no effect))
- c: corn, effect on crop (criteria 0-5) [15]: 4 (Herbicidal ratio of 70% or higher and lower than 90%)
- herbicidal effect on H (Echinochloa crus-galli var. crus-galli), grade 0-5 [16]: 4 (Herbicidal ratio of 70% or higher and lower than 90%)

SMILES: CC#Cc1cc(C)c(C2=C(O)CC(CC(=NOC)C(C)C)C2=O)c(C)c1 (stereo not shown) [9-006]
- Herbicidal effect grade, I: Avena fatua [1]: 4 (Herbicidal ratio of 70% or higher and lower than 90%)
- J: Alopecurus myosuroides, herbicidal effect grade [2]: 5 (Herbicidal ratio of 90% or more (almost completely withered))
- g: rapeseed, effect on crop grade [3]: 4 (Herbicidal ratio of 70% or higher and lower than 90%)
- Herbicidal effect grade, B: Scirpus juncoides [4]: 4 (Herbicidal ratio of 70% or higher and lower than 90%)
- Herbicidal effect grade, L: Apera spica-venti [5]: 5 (Herbicidal ratio of 90% or more (almost completely withered))
- Herbicidal effect grade, J: Alopecurus myosuroides [6]: 5 (Herbicidal ratio of 90% or more (almost completely withered))
- L: Apera spica-venti, herbicidal effect grade [7]: 5 (Herbicidal ratio of 90% or more (almost completely withered))
- Herbicidal effect grade, M: Abutilon theophrasti [8]: 0 (Herbicidal ratio of 5% or lower (almost no effect))
- Herbicidal effect grade, O: Chenopodium album [9]: 0 (Herbicidal ratio of 5% or lower (almost no effect))
- B (Scirpus juncoides) herbicidal effect grade [10]: 4 (Herbicidal ratio of 70% or higher and lower than 90%)
- E herbicidal effect grade [11]: 5 (Herbicidal ratio of 90% or more (almost completely withered))
- Herbicidal effect grade, A: Echinochloa oryzacola Vasing. [12]: 5 (Herbicidal ratio of 90% or more (almost completely withered))
- Herbicidal effect grade, G: Setaria viridis [13]: 5 (Herbicidal ratio of 90% or more (almost completely withered))
- Herbicidal effect grade, R: Veronica persica [14]: 4 (Herbicidal ratio of 70% or higher and lower than 90%)
- c: corn, effect on crop grade [15]: 5 (Herbicidal ratio of 90% or more (almost completely withered))
- H (Echinochloa crus-galli var. crus-galli) herbicidal effect grade [16]: 5 (Herbicidal ratio of 90% or more (almost completely withered))

SMILES: COC(=O)C(C(=O)C1CC1)C1CC(O)=C(c2c(C)cc(Br)cc2C)C1=O (mixture of isomers) [10-002]
- Herbicidal effect grade, I: Avena fatua [1]: 3 (Herbicidal ratio of 40% or higher and lower than 70%)
- J: Alopecurus myosuroides, herbicidal effect grade [2]: 4 (Herbicidal ratio of 70% or higher and lower than 90%)
- g: rapeseed, effect on crop grade [3]: 0 (Herbicidal ratio of 5% or lower (almost no effect))
- Herbicidal effect grade, B: Scirpus juncoides [4]: 0 (Herbicidal ratio of 5% or lower (almost no effect))
- Herbicidal effect grade, L: Apera spica-venti [5]: 3 (Herbicidal ratio of 40% or higher and lower than 70%)
- Herbicidal effect grade, J: Alopecurus myosuroides [6]: 0 (Herbicidal ratio of 5% or lower (almost no effect))
- L: Apera spica-venti, herbicidal effect grade [7]: 4 (Herbicidal ratio of 70% or higher and lower than 90%)
- Herbicidal effect grade, M: Abutilon theophrasti [8]: 0 (Herbicidal ratio of 5% or lower (almost no effect))
- Herbicidal effect grade, O: Chenopodium album [9]: 0 (Herbicidal ratio of 5% or lower (almost no effect))
- B (Scirpus juncoides) herbicidal effect grade [10]: 0 (Herbicidal ratio of 5% or lower (almost no effect))
- E herbicidal effect grade [11]: 3 (Herbicidal ratio of 40% or higher and lower than 70%)
- Herbicidal effect grade, A: Echinochloa oryzacola Vasing. [12]: 1 (Herbicidal ratio of 5% or higher and lower than 20%)
- Herbicidal effect grade, G: Setaria viridis [13]: 4 (Herbicidal ratio of 70% or higher and lower than 90%)
- Herbicidal effect grade, R: Veronica persica [14]: 0 (Herbicidal ratio of 5% or lower (almost no effect))
- c: corn, effect on crop grade [15]: 5 (Herbicidal ratio of 90% or more (almost completely withered))
- H (Echinochloa crus-galli var. crus-galli) herbicidal effect grade [16]: 5 (Herbicidal ratio of 90% or more (almost completely withered))
